Measured values reported in patent publication EP0465716A1, “Optically active thiazetoquino-line-3-carboxylic acid compound, method for preparation thereof, and a pharmaceutical composition comprising the same” (priority 1990, dated 1992).
≈ marks a conversion by molar mass, not a printed value.

Key:
Male mice of ddY strain = assay: Convulsion inducing activity in combination with fenbufen; conditions: thirty minutes after fenbufen 100 mg/kg orally
Description: Male mice of ddY strain, 5 weeks old, were used. Fenbufen suspended in 0.5 % carboxymethylcellulose was administered orally at a dose of 100 mg/kg. After thirty minutes, test compounds suspended in 0.5 % carboxymethylcellulose were injected intraperitoneally (i.p.) at a dose of 100 mg/kg or 300 mg/kg.

[1] = test system: Enterococcus faecalis HPC 975; assay: MIC, twofold agar dilution method (clinically isolated strain); type: cell-based; conditions: HPC975; Enterococcus faecalis HPC 975, Gram +; 10^6 cfu/ml; 18 hrs at 37 °C
Description: (§1) Overnight cultures in Mueller-Hinton broth were suspended by buffered saline gelatin. One loopful of the bacterial suspension (10⁶ or 10⁸ colony-forming units/ml) was incubated onto the plates containing test compounds. The plates were incubated for 18 hrs at 37 °C. The MIC was defined by the lowest concentration of the drug that inhibited visible growth of bacteria.

[2] = test system: Klebsiella pneumoniae HNR 828; assay: as above; type: cell-based; conditions: HNR828; Klebsiella pneumoniae HNR 828, Gram -; 10^6 cfu/ml; 18 hrs at 37 °C
Description: as §1

[3] = test system: Staphylococcuss aureus HPC 308; assay: as above; type: cell-based; conditions: Staphylococcuss aureus HPC 308, Gram +; 10^6 cfu/ml; 18 hrs at 37 °C
Description: as §1

[4] = test system: Staphylococcuss aureus HPC 527; assay: as above; type: cell-based; conditions: Staphylococcuss aureus HPC 527, Gram +; 10^6 cfu/ml; 18 hrs at 37 °C
Description: as §1

[5] = test system: Klebsiella pneumoniae HNR 858; assay: as above; type: cell-based; conditions: HNR858; Klebsiella pneumoniae HNR 858, Gram -; 10^6 cfu/ml; 18 hrs at 37 °C
Description: as §1

[6] = test system: Enterobacter cloacae HNR 1941; assay: as above; type: cell-based; conditions: HNR1941; Enterobacter cloacae HNR 1941, Gram -; 10^6 cfu/ml; 18 hrs at 37 °C
Description: as §1

[7] = test system: Enterococcus faecalis HPC 948; assay: as above; type: cell-based; conditions: HPC948; Enterococcus faecalis HPC 948, Gram +; 10^6 cfu/ml; 18 hrs at 37 °C
Description: as §1

[8] = test system: Acinetobacter calcoaceticus HNR 939; assay: as above; type: cell-based; conditions: HNR939; Acinetobacter calcoaceticus HNR 939, Gram -; 10^6 cfu/ml; 18 hrs at 37 °C
Description: as §1

[9] = test system: Pseudomonas aeruginosa HNR 1489; assay: as above; type: cell-based; conditions: HNR1489; Pseudomonas aeruginosa HNR 1489, Gram -; 10^6 cfu/ml; 18 hrs at 37 °C
Description: as §1

[10] = test system: Enterococcus faecalis HPC 984; assay: as above; type: cell-based; conditions: HPC984; Enterococcus faecalis HPC 984, Gram +; 10^6 cfu/ml; 18 hrs at 37 °C
Description: as §1

[11] = test system: Serratia marcescens HNR 1544; assay: as above; type: cell-based; conditions: HNR1544; Serratia marcescens HNR 1544, Gram -; 10^6 cfu/ml; 18 hrs at 37 °C
Description: as §1

[12] = test system: Acinetobacter calcoaceticus HNR 916; assay: as above; type: cell-based; conditions: HNR916; Acinetobacter calcoaceticus HNR 916, Gram -; 10^6 cfu/ml; 18 hrs at 37 °C
Description: as §1

[13] = test system: Staphylococcuss aureus HPC 292; assay: as above; type: cell-based; conditions: Staphylococcuss aureus HPC 292, Gram +; 10^6 cfu/ml; 18 hrs at 37 °C
Description: as §1

[14] = test system: Enterobacter cloacae HNR 1939; assay: as above; type: cell-based; conditions: HNR1939; Enterobacter cloacae HNR 1939, Gram -; 10^6 cfu/ml; 18 hrs at 37 °C
Description: as §1

[15] = test system: Serratia marcescens HNR 1767; assay: as above; type: cell-based; conditions: HNR1767; Serratia marcescens HNR 1767, Gram -; 10^6 cfu/ml; 18 hrs at 37 °C
Description: as §1

[16] = test system: Pseudomonas aeruginosa HNR 1537; assay: as above; type: cell-based; conditions: HNR1537; Pseudomonas aeruginosa HNR 1537, Gram -; 10^6 cfu/ml; 18 hrs at 37 °C
Description: as §1

[17] = test system: Serratia marcescens HNR 1792; assay: as above; type: cell-based; conditions: HNR1792; Serratia marcescens HNR 1792, Gram -; 10^6 cfu/ml; 18 hrs at 37 °C
Description: as §1

[18] = test system: Enterobacter cloacae HNR 1946; assay: as above; type: cell-based; conditions: HNR1946; Enterobacter cloacae HNR 1946, Gram -; 10^6 cfu/ml; 18 hrs at 37 °C
Description: as §1

[19] = test system: Pseudomonas aeruginosa HNR 1472; assay: as above; type: cell-based; conditions: HNR1472; Pseudomonas aeruginosa HNR 1472, Gram -; 10^6 cfu/ml; 18 hrs at 37 °C
Description: as §1

[20] = test system: Klebsiella pneumoniae HNR 869; assay: as above; type: cell-based; conditions: HNR869; Klebsiella pneumoniae HNR 869, Gram -; 10^6 cfu/ml; 18 hrs at 37 °C
Description: as §1

[21] = test system: Acinetobacter calcoaceticus HNR 904; assay: as above; type: cell-based; conditions: HNR904; Acinetobacter calcoaceticus HNR 904, Gram -; 10^6 cfu/ml; 18 hrs at 37 °C
Description: as §1

[22] = test system: Serratia marcescens IAM 1184; assay: MIC, twofold agar dilution method (standard laboratory strain); type: cell-based; conditions: IAM1184; Serratia marcescens IAM 1184, Gram -; 10^6 cfu/ml; 18 hrs at 37 °C
Description: as §1

[23] = test system: Escherichia coli NIHJ JC-2; assay: as above; type: cell-based; conditions: NIHJJC2; Escherichia coli NIHJ JC-2, Gram -; 10^6 cfu/ml; 18 hrs at 37 °C
Description: as §1

[24] = test system: Staphylococuss aureus FDA 209PJC-1; assay: as above; type: cell-based; conditions: Staphylococuss aureus FDA 209PJC-1, Gram +; 10^6 cfu/ml; 18 hrs at 37 °C
Description: as §1

[25] = test system: Pseudomonas aeruginosa IFO 3445; assay: as above; type: cell-based; conditions: IFO3445; Pseudomonas aeruginosa IFO 3445, Gram -; 10^6 cfu/ml; 18 hrs at 37 °C
Description: as §1

Enterobacter cloacae 963 = assay: as above; type: cell-based; conditions: Enterobacter cloacae 963, Gram -; 10^6 cfu/ml; 18 hrs at 37 °C
Description: as §1

[26] = test system: Klebsiella pneumoniae PCI-602; assay: as above; type: cell-based; conditions: PCI602; Klebsiella pneumoniae PCI-602, Gram -; 10^6 cfu/ml; 18 hrs at 37 °C; read-out: MIC
Description: as §1, with “Minimum inhibitory concentrations (MIC) of test compounds were determined by the twofold agar dilution method (Chemotherapy, 29(1), 76(1981)). Overnight” for “Overnight”

MIC [1] [µg/mL]	MIC [2] [µg/mL]	MIC [3] [µg/mL]	MIC [4] [µg/mL]	MIC [5] [µg/mL]	MIC [6] [µg/mL]	MIC [7] [µg/mL]	MIC [8] [µg/mL]	MIC [9] [µg/mL]	MIC [10] [µg/mL]	MIC [11] [µg/mL]	MIC [12] [µg/mL]	MIC [13] [µg/mL]	MIC [14] [µg/mL]	MIC [15] [µg/mL]	MIC [16] [µg/mL]	MIC [17] [µg/mL]	MIC [18] [µg/mL]	Structure (SMILES)	Number of convulsion induced / Number of animals (Male mice of ddY strain; 100 mg/kg (i.p.))	Number of convulsion induced / Number of animals (Male mice of ddY strain; 300 mg/kg (i.p.))	further results
> 100	50 (≈ 143 µM)	25 (≈ 71.6 µM)	0.1 (≈ 0.286 µM)	0.39 (≈ 1.12 µM)	> 100	3.13 (≈ 8.96 µM)	6.25 (≈ 17.9 µM)	0.1 (≈ 0.286 µM)	0.39 (≈ 1.12 µM)	0.1 (≈ 0.286 µM)	0.39 (≈ 1.12 µM)	> 100	0.39 (≈ 1.12 µM)	> 100	1.56 (≈ 4.46 µM)	50 (≈ 143 µM)	0.78 (≈ 2.23 µM)	CC1Sc2c(C(=O)O)c(=O)c3cc(F)c(N4CCC(N)C4)cc3n21 (stereo not shown) [Ref. Drug D, 7-(3-amino-1-pyrrolidinyl)-6-fluoro-1-methyl-4-oxo-1H,4H-[1,3]thiazeto[3,2-a]quinoline-3-carboxylic acid]	0 / 6	0 / 6	MIC [19]: 50 µg/mL (≈ 143 µM); MIC [20]: 3.13 µg/mL (≈ 8.96 µM); MIC [21]: > 100 µg/mL; MIC [22]: 0.1 µg/mL (≈ 0.286 µM); MIC [23]: 0.05 µg/mL (≈ 0.143 µM); MIC [24]: 0.05 µg/mL (≈ 0.143 µM); MIC [25]: 0.1 µg/mL (≈ 0.286 µM); MIC (Enterobacter cloacae 963): 0.05 µg/mL (≈ 0.143 µM); MIC [26]: 0.012 µg/mL (≈ 0.0343 µM)
1.56 (≈ 4.25 µM)	0.78 (≈ 2.12 µM)	0.39 (≈ 1.06 µM)	0.012 (≈ 0.0327 µM)	0.05 (≈ 0.136 µM)	1.56 (≈ 4.25 µM)	0.39 (≈ 1.06 µM)	0.78 (≈ 2.12 µM)	0.05 (≈ 0.136 µM)	0.05 (≈ 0.136 µM)	0.012 (≈ 0.0327 µM)	0.025 (≈ 0.068 µM)	0.78 (≈ 2.12 µM)	0.05 (≈ 0.136 µM)	3.13 (≈ 8.52 µM)	3.13 (≈ 8.52 µM)	0.78 (≈ 2.12 µM)	0.1 (≈ 0.272 µM)	CC1Sc2c(C(=O)O)c(=O)c3cc(F)c(N4CC[C@H](N)C4)c(F)c3n21 (single isomer, unassigned) [Example 18]	0 / 6	0 / 6	MIC [19]: 1.56 µg/mL (≈ 4.25 µM); MIC [20]: 0.39 µg/mL (≈ 1.06 µM); MIC [21]: 3.13 µg/mL (≈ 8.52 µM); MIC [22]: 0.012 µg/mL (≈ 0.0327 µM); MIC [23]: 0.006 µg/mL (≈ 0.0163 µM); MIC [24]: 0.006 µg/mL (≈ 0.0163 µM); MIC [25]: 0.025 µg/mL (≈ 0.068 µM); MIC (Enterobacter cloacae 963): 0.006 µg/mL (≈ 0.0163 µM); MIC [26]: ≤ 0.0015 µg/mL
